# Laboratory results from patent publication US10596264B2, “Peptides with viral infection enhancing properties and their use” (Genethon, priority 2011, dated 2020).
# Where no end group is shown, it is not given here.
# How the values were obtained:
# hCD34+ cells = conditions: for Cytotoxic effect of the peptides: hCD34+ cells transduced with RD114TR-LV or GALVTR-MLV, peptide 12 μg/ml
# human CD34+ cells = assay type: cell-based
# 293T cells = experiment: Transfection of 293T cells with pEGFP-C1 in presence of peptides; assay type: cell-based; conditions: peptide 24 μg/ml; 1 μg pEGFP-C1; 48 h
# Experimental: FIG. 11. Transfection of 293T cells with pEGFP in presence of LAH4-A4, LAH4-L1 or K2-L10A12-K2 peptides. pEGFP-C1 (1 μg) was mixed in 50 μl of 150 mM NaCl solution with either 3 μg, 4.5 μg, 6 μg or 9 μg of LAH4-A4 or 6 μg of LAH4-L1 or 6 μg of K2-L10A12-K2. Next, the DNA/peptide mix was diluted in 200 μl of DMEM without FCS and loaded onto cell monolayers. 3 hours post-transfection, the medium was replaced with DMEM containing 10% FCS. 48 h later, transfection efficiencies were estimated by monitoring GFP expression using flow cytometry. Data are the average of two independent experiments performed in duplicate with SD.
# 293T cells (1.5×10E5/well) were plated in 48-well plates the day before transfection. For transfection, 1 μg of pEGFP-C1 was mixed with the desired amount of peptide in 50 μl of 150 mM NaCl solution, vortexed and incubated 15 min at room temperature. Next, the DNA/peptide mix was diluted in 200 μl of DMEM without FCS and loaded onto cell monolayers. 3 hours post-transfection, the medium was replaced with DMEM containing 10% FCS. 48 h later, transfection efficiency was estimated by monitoring GFP expression using flow cytometry.
# lentiviral vectors = conditions: Wurm et al., 2010; cited from earlier work
# [1] = system: human hematopoietic cells engraftment; conditions: hCD34+ cells transduced in presence of 12 μg/ml LAH4-L1
substance,measurement,setting,value
KKALLHALLAHLAALLHALLAHLKKA-NH2 [LAH4-A5],Cytotoxic effect of the peptides,hCD34+ cells,did not observe any cytotoxic effect
KKALLAAALAALLALAAALLALLKKA (K2-L10A12-K2),Transduction efficiency compared with LAH4-A4 (in words),human CD34+ cells,still able to promote some lentiviral transduction
same,hCD34+ transduction level compared to LAH4-A4,human CD34+ cells,17%
same,Transfection of 293T cells with GFP plasmid,293T cells,unable to promote cell transfection
KKLLLHALLAHLLALLHHLLALLKKL (LAH4-A4-Leu),Transduction efficiency compared with LAH4-A4 (in words),human CD34+ cells,two times less potent than LAH4-A4
ALLHAALAHLLALAHHLLALLKKA-NH2 [LAH4-A4-dKN],"Cytotoxicity (mortality, 7-AAD)",hCD34+ cells,not the consequence of a strong cytotoxic effect
KKALLAKALKLLALLALKLAKALKKA-NH2 [LAK4-L1],"Cytotoxicity (mortality, 7-AAD)",hCD34+ cells,not the consequence of a strong cytotoxic effect
KKKLLHAALAHLLALAHHLLALLKKA (LAH4-A4-K3N),Transduction efficiency compared with LAH4-A4 (in words),human CD34+ cells,as efficient as LAH4-A4
KKALLHAALAHLLPLAHHLLALLKKA (LAH4-A4-P14),Lentiviral transduction abolished relative to LAH4-A4,human CD34+ cells,80%
KALLHAALAHLLALAHHLLALLKKA (LAH4-A4-K1N),hCD34+ transduction level compared to LAH4-A4,human CD34+ cells,60%
KKLLHAALAHLLALAHHLLALLKK (LAH4-A4-d2aa),hCD34+ transduction level compared to LAH4-A4,human CD34+ cells,30%
"GIHKQKEKSRLQGGVLVNEILNHMKRATQIPSYKKLIMY (SEVI) [human Semen Enhancer of Viral Infection, fragment of the human prostatic acid phosphatase; not amidated]",Ability to promote the transduction of lentiviral vectors,lentiviral vectors,able to promote the transduction of lentiviral vectors
KKALLHLALLHAALLAHHLALALKKA-NH2 [LAH4-L4ISO],Cytotoxic effect of the peptides,hCD34+ cells,did not observe any cytotoxic effect
KKALLHAALAHLLALAHHLLALLKKA-NH2 [LAH4-A4],"Cytotoxicity (mortality, 7-AAD)",hCD34+ cells,no apparent cytotoxicity
same,"Cytotoxicity (mortality, 7-AAD) in dose-response experiment",hCD34+ cells,no apparent cytotoxicity
same,Cytotoxic effect of the peptides,hCD34+ cells,did not observe any cytotoxic effect
LAH4-L4: L series peptide with hydrophilic angle of 140°; b61: LAH4-L4 peptide of SEQ ID NO:36; possibly LAH4-L4iso is meant (KKALLALALHHLALLAHLLALHLKKA; LAH4-L4) [L series peptide with hydrophilic angle of 140°; possibly LAH4-L4iso is meant],"Capacity to promote transduction of hCD34+ cells with GALVTR-LVs, ranking within L and A series of isomers",human CD34+ cells,most efficient
KKALLAHALHLLALLALHLAHALKKA-NH2 [LAH4-L1],"Cytotoxic effect (mortality, 7-AAD)",hCD34+ cells,did not observe any cytotoxic effect
same,Cytotoxic effect of the peptides,hCD34+ cells,did not observe any cytotoxic effect
same,Cytotoxic or deleterious effect on human immune system reconstitution,[1],did not observed any cytotoxic or deleterious effect
ALLAHALHLLALLALHLAHALA (LAH4-L1-dK) [LAH4-L 1-dK],Transduction efficiency compared with LAH4-L1 (in words),human CD34+ cells,not detectable
HHALLAHALHLLALLALHLAHALHHA (LAH8-L1),Transduction efficiency compared with LAH4-L1 (in words),human CD34+ cells,detrimental
KKALLAHALHLLALLALHLAHALA (LAH4-L1-dKC),Transduction efficiency compared with LAH4-L1 (in words),human CD34+ cells,as efficiently as LAH4-L1
KKALLHAALAHLLALAHHLLALLKK (LAH4-A4-d1aa),Transduction efficiency compared with LAH4-A4 (in words),human CD34+ cells,slightly decreases the efficiency
RRALLAHALHLLALLALHLAHALRRA-NH2 [LAH4-L1-R],"Cytotoxicity (mortality, 7-AAD)",hCD34+ cells,no apparent cytotoxicity
KKALLAAALAALLALAHHLLALLKKA (LAH2-A4),Transduction efficiency compared with LAH4-A4 (in words),human CD34+ cells,not functional
KKALLHAALAHLLALAAALLALLKKA-NH2 [LAH2-A6],"Cytotoxicity (mortality, 7-AAD)",hCD34+ cells,no apparent cytotoxicity
ALLAHALHLLALLALHLAHALKKA (LAH4-L1-dKN),Transduction efficiency compared with LAH4-L1 (in words),human CD34+ cells,not detectable
